“Also recorded” adds a separate entry of the source. Where two headings read alike, the source gives them in different places.
Experiments:
Assay type in all cases: cell-based
OR2W1 [1] = target: T1, OR2W1 (Homo sapiens, UniProt Q9Y3N9); test: Luciferase reporter assay: odorant response of OR2W1 expressed in HEK293 cells
T1 construct: expressed in transfected cells; host or cells: HEK293
T1 sequence (Q9Y3N9 1-320): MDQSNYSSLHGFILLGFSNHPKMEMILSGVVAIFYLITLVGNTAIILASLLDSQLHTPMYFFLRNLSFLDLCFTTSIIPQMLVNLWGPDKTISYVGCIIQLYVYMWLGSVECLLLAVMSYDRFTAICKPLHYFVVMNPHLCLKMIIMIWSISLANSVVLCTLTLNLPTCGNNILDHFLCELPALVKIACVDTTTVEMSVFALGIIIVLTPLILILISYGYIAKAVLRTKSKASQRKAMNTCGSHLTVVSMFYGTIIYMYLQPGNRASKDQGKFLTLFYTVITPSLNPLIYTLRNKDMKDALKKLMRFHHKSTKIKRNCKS
Description: (§1) Each of the 369 types of human olfactory receptors was expressed in HEK293 cells. A reaction solution having a composition shown in Table 1 was prepared on a clean bench, and left to stand for 15 minutes. The solution was dispensed to each well of a 96-well plate (BD). Subsequently, HEK293 cells (100 μL, 3×10^5 cells/cm^2) were seeded in each well and cultured for 24 hours in an incubator at 37° C. and under 5% CO2 conditions.
(§2) The olfactory receptor expressed in HEK293 cells activates adenylate cyclase with the aid of Gαs present in cells, to thereby increase intracellular cAMP level. In this study, odorant response was measured by a luciferase reporter gene assay which monitored the intracellular cAMP level as the luminescence value derived from a firefly luciferase gene (fluc2P-CRE-hygro). Also, a Renilla luciferase gene fused downstream of a CMV promoter (hRluc-CMV) was also transfected to HEK293 cells as an internal standard to correct errors in gene transfer efficiency and number of cells.
(§3) The culture medium was removed from the culture plate produced in (3) above, and a solution (75 μL) containing an odorant substance (1 mM skatole) in CD293 medium (Invitrogen) was added to each well. […] Luciferase activity was measured by means of a Dual-Glo™ luciferase assay system (promega) according to an instruction manual thereof. The luminescence value derived from firefly luciferase induced by odorant stimulation was divided by the luminescence value of cells which were not stimulated with odorants. […]
(§4) In a manner similar to that employed in Example 1, each of olfactory receptor OR2W1 (SEQ ID NO: 2), OR5K1 (SEQ ID NO: 4), OR5P3 (SEQ ID NO: 6), and OR8H1 (SEQ ID NO: 8) was expressed with RTP1S mutant (SEQ ID NO: 12) in HEK293 cells. The response of each receptor to skatole (0, 3, 10, 30, 100, 300, and 1000 μM) was determined.
(§5) In a manner similar to that employed in Example 2, the response of each olfactory receptor to skatole and indole (each 0, 3, 10, 30, 100, 300, and 1000 μM) was determined.

OR5K1 [2] = target: T2, OR5K1 (Homo sapiens, UniProt Q8NHB7); test: Luciferase reporter assay: odorant response of OR5K1 expressed in HEK293 cells
T2 construct: expressed in transfected cells; host or cells: HEK293
T2 sequence (Q8NHB7 1-308): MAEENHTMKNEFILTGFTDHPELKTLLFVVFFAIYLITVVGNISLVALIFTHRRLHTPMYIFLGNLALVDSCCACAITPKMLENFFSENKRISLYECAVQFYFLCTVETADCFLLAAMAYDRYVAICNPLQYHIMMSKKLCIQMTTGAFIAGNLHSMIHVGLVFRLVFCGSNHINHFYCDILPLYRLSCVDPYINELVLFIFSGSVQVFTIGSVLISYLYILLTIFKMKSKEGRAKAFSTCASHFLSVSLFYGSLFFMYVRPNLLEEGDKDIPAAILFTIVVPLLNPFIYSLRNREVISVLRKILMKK
Description: as §1, §2, §3, §4, §5

OR5P3 [3] = target: T3, OR5P3 (Homo sapiens, UniProt Q8WZ94); test: Luciferase reporter assay: odorant response of OR5P3 expressed in HEK293 cells
T3 construct: expressed in transfected cells; host or cells: HEK293
T3 sequence (Q8WZ94 1-311): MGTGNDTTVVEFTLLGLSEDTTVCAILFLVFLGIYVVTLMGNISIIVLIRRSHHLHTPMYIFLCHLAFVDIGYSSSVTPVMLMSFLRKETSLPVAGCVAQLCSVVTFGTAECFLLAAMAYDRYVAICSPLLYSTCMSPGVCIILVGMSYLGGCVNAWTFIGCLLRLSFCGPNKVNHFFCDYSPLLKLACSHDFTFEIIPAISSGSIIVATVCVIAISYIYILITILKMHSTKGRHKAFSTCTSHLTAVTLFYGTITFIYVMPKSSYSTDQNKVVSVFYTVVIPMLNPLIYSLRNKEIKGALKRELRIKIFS
Description: as §1, §2, §3, §4, §5

OR8H1 [4] = target: T4, OR8H1 (Homo sapiens, UniProt Q8NGG4); test: Luciferase reporter assay: odorant response of OR8H1 expressed in HEK293 cells
T4 construct: expressed in transfected cells; host or cells: HEK293
T4 sequence (Q8NGG4 1-311): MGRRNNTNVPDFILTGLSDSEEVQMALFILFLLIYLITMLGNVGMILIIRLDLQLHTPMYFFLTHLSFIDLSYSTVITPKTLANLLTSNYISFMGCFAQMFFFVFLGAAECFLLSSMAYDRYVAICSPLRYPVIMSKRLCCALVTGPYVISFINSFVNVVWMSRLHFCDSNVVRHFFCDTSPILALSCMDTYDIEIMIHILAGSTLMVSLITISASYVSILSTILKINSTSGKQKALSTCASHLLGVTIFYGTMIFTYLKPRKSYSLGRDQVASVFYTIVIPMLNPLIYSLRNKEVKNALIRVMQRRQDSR
Description: as §1, §2, §3, §4, §5

OR2W1 [5] = target: T1, OR2W1; test: Luciferase reporter assay: suppression of the skatole response of OR2W1 expressed in HEK293 cells; details: for inhibition at 100 µM: read-out: Inhibition rate 2W1
Description: (§6) A reaction solution having a composition shown in Table 1 was prepared on a clean bench, and left to stand for 15 minutes. The solution was dispensed to each well of a 96-well plate (BD). Subsequently, HEK293 cells (100 μL, 3×10^5 cells/cm^2) were seeded in each well and cultured for 24 hours in an incubator at 37° C. and under 5% CO2 conditions.
as §2
(§7) Cell culturing was performed for four hours in a CO2-incubator, whereby the luciferase gene sufficiently expressed in the cells. Luciferase activity was measured by means of a Dual-Glo™ luciferase assay system (promega) according to an instruction manual thereof. The luminescence value derived from firefly luciferase induced by odorant stimulation was divided by the luminescence value of cells which were not stimulated with odorants. The thus-obtained—called “fold increase”—was employed as an index for response intensity.
(§8) The response inhibition rate of a test substance was calculated as follows. Firstly, luminescence value derived from firefly luciferase induced by stimulation with skatole (X), and luminescence value in cells which expressed the same receptor but were not stimulated with skatole (Y) were determined. By subtracting Y from X, the receptor activity by stimulation with skatole alone (X−Y) was determined. Similarly, the luminescence value induced by stimulation with a mixture of skatole and a test substance (Z) was determined. Through subtracting Y (the luminescence value in cells which expressed the same receptor but were not stimulated with skatole) from Z, the receptor activity (Z−Y) by stimulation with a mixture of skatole and the test substance was obtained. From the thus-obtained receptor activity by stimulation with skatole alone (X−Y) and the receptor activity in the presence of a test material (Z−Y), the response inhibition rate of the test substance was calculated by the following equation: Inhibition rate (%)={1−(Z−Y)/(X−Y)}×100.
(§9) In each case, multiple independent experiments were performed in duplicate, and the average of each experiment was used.

OR5K1 [6] = target: T2, OR5K1; test: Luciferase reporter assay: suppression of the skatole response of OR5K1 expressed in HEK293 cells; details: for inhibition at 100 µM: read-out: Inhibition rate 5K1
Description: as §6, §2, §7, §8, §9

OR5P3 [7] = target: T3, OR5P3; test: Luciferase reporter assay: suppression of the skatole response of OR5P3 expressed in HEK293 cells; details: test substance 100 μM mixed with 300 μM skatole, HEK293 cells expressing OR5P3
Description: as §6, §2, §7, §8, §9

OR8H1 [8] = target: T4, OR8H1; test: Luciferase reporter assay: suppression of the skatole response of OR8H1 expressed in HEK293 cells; details: for inhibition at 100 µM: read-out: Inhibition rate 8H1
Description: as §6, §2, §7, §8, §9

[9] = 4 h, test substance 100 μM mixed with 300 μM skatole, HEK293 cells expressing OR2W1
[10] = 4 h, test substance 100 μM mixed with 300 μM skatole, HEK293 cells expressing OR5K1
[11] = 4 h, test substance 100 μM mixed with 300 μM skatole, HEK293 cells expressing OR8H1

SMILES | inhibition at 100 µM (OR2W1 [5]; [9]) | inhibition at 100 µM (OR5K1 [6]; [10]) | Inhibition rate 5P3 (OR5P3 [7]) | inhibition at 100 µM (OR8H1 [8]; [11]) | further results
Cc1c[nH]c2ccccc12 [skatole] | – | – | – | – | response of olfactory receptor at different concentration (OR2W1 [1]; 0, 3, 10, 30, 100, 300, and 1000 μM odorant, OR2W1, FIG. 2/3): dose-dependent response; also recorded: exhibited a response; response of olfactory receptor (fold increase) (OR2W1 [1]; 1 mM odorant, OR2W1, FIG. 1): exhibited response; response of olfactory receptor at different concentration (OR5K1 [2]; 0, 3, 10, 30, 100, 300, and 1000 μM odorant, OR5K1, FIG. 2/3): dose-dependent response; also recorded: exhibited a response; response of olfactory receptor (fold increase) (OR5K1 [2]; 1 mM odorant, OR5K1, FIG. 1): exhibited response; response of olfactory receptor at different concentration (OR5P3 [3]; 0, 3, 10, 30, 100, 300, and 1000 μM odorant, OR5P3, FIG. 2/3): dose-dependent response; also recorded: exhibited a response; response of olfactory receptor (fold increase) (OR5P3 [3]; 1 mM odorant, OR5P3, FIG. 1): exhibited response; response of olfactory receptor at different concentration (OR8H1 [4]; 0, 3, 10, 30, 100, 300, and 1000 μM odorant, OR8H1, FIG. 2/3): dose-dependent response; also recorded: exhibited a response; response of olfactory receptor (fold increase) (OR8H1 [4]; 1 mM odorant, OR8H1, FIG. 1): exhibited response
O=C1CCCCCCC=CCCCCCCC1 [globanone, 8-Cyclohexadecen-1-one] | > 80% | < 20% | C (C >20%) | < 20% | –
CC1C/C=C/CCCCCCCCCC(=O)C1 (stereo not shown) [Muscenone delta, (5E)-3-methylcyclopentadec-5-en-1-one] | 20 to 50% | < 20% | C (C >20%) | 20 to 50% | –
CC1(C)CCCC2(C)C1CCC1(C)OCCC12 (stereo not shown) [Ambroxane, Dodecahydro-3a,6,6,9a-tetramethyl-naphtho[2.1-b]furan] | – | – | B (B >50%) | – | Inhibition rate 2W1 (OR2W1 [5]; test substance 100 μM mixed with 300 μM skatole, HEK293 cells expressing OR2W1): A (A >80%); Inhibition rate 5K1 (OR5K1 [6]; test substance 100 μM mixed with 300 μM skatole, HEK293 cells expressing OR5K1): C (C >20%); Inhibition rate 8H1 (OR8H1 [8]; test substance 100 μM mixed with 300 μM skatole, HEK293 cells expressing OR8H1): A (A >80%)
O=C1CCCCCCC/C=C\CCCCCCC1 [civetone, (Z)-Cycloheptadeca-9-en-1-one] | – | – | B (B >50%) | – | inhibition at 100 µM (OR2W1 [5]; HEK293, 4 h): > 80%; inhibition at 100 µM (OR5K1 [6]; HEK293, 4 h): 50 to 80%; inhibition at 100 µM (OR8H1 [8]; HEK293, 4 h): 50 to 80%
CCCCCCCC1CCC(=O)O1 (stereo not shown) [γ-undecalactone, 5-Heptyl dihydro-2(3H)-furanone] | 50 to 80% | 50 to 80% | B (B >50%) | 50 to 80% | –

The next lines start with results.

inhibition at 100 µM (OR2W1 [5]; [9]) | inhibition at 100 µM (OR5K1 [6]; [10]) | Inhibition rate 5P3 (OR5P3 [7]) | inhibition at 100 µM (OR8H1 [8]; [11]) | SMILES | further results
> 80% | < 20% | A (A >80%) | < 20% | C=CC(C)(O)CCC=C(C)CCC=C(C)C (stereo not shown) [nerolidol, 3,7,11-Trimethyl-1,6,10-dodecatrien-3-ol] | –
20 to 50% | 50 to 80% | C (C >20%) | 20 to 50% | COC(C)(C)CCCC(C)CC=O (stereo not shown) [methoxycitronellal, 7-Methoxy-3,7-dimethyl-octanal] | –
< 20% | 20 to 50% | B (B >50%) | 50 to 80% | CC(C)=CCC/C(C)=C/CO [geraniol, 2-trans-3,7-Dimethyl-2,6-octadien-1-ol] | –
20 to 50% | 20 to 50% | C (C >20%) | < 20% | CC(C)=CCCC(C)CC=O (stereo not shown) [citronellal, 3,7-Dimethyl-6-octenal] | –
< 20% | < 20% | A (A >80%) | < 20% | CC(CCO)CCc1ccccc1 (stereo not shown) [phenylhexanol, 3-Methyl-5-phenyl-1-pentanol] | –
20 to 50% | 50 to 80% | B (B >50%) | > 80% | CC(C)CCCC(C)CCO (stereo not shown) [tetrahydrogenol, 3,7-Dimethyl-1-octanol] | –

— patent publication US9249453B2, “Method for identifying a malodor inhibitor” (Kao Corporation, priority 2011, dated 2016)
